Measured values reported in ChEMBL document CHEMBL3351739, “Design, synthesis and biological evaluation of 6-(nitroimidazole-1H-alkyloxyl)-4-anilinoquinazolines as efficient EGFR inhibitors exerting cytotoxic effects both under normoxia and hypoxia” (Eur J Med Chem, 2015).
pIC50: −log10 of the molar value.

Assays:
[1] = molecular target: Epidermal growth factor receptor (Homo sapiens, UniProt P00533); test: Inhibition of wild type EGFR (unknown origin) by Z'-Lyte kinase assay
HT-29 [2] = test: Cytotoxicity against human HT-29 cells after 72 hrs under normoxia conditions by SRB assay; assay type: functional, cell-based; details: HT-29, 72 h
HT-29 [3] = test: Cytotoxicity against human HT-29 cells after 72 hrs under hypoxia conditions by SRB assay; assay type: functional, cell-based; details: HT-29, 72 h
[4] = Reductive drug activation assessed as reactive radical formation at 4.1 umol in pH 7.4 PBS in presence of zinc dust and ammonium chloride by HPLC-Q-ToF-MS method; details: buffer
[5] = Metabolic stability in mouse liver microsomes assessed as compound remaining at 5 uM after 30 mins under normoxia conditions in presence of NADPH by HPLC method; assay type: ADME; details: read-out: Stability
[6] = Metabolic stability in mouse liver microsomes assessed as compound remaining at 5 uM after 30 mins under hypoxia conditions in presence of NADPH by HPLC method; assay type: ADME; details: read-out: Stability

Epidermal growth factor receptor, sequence (P00533 whole entry): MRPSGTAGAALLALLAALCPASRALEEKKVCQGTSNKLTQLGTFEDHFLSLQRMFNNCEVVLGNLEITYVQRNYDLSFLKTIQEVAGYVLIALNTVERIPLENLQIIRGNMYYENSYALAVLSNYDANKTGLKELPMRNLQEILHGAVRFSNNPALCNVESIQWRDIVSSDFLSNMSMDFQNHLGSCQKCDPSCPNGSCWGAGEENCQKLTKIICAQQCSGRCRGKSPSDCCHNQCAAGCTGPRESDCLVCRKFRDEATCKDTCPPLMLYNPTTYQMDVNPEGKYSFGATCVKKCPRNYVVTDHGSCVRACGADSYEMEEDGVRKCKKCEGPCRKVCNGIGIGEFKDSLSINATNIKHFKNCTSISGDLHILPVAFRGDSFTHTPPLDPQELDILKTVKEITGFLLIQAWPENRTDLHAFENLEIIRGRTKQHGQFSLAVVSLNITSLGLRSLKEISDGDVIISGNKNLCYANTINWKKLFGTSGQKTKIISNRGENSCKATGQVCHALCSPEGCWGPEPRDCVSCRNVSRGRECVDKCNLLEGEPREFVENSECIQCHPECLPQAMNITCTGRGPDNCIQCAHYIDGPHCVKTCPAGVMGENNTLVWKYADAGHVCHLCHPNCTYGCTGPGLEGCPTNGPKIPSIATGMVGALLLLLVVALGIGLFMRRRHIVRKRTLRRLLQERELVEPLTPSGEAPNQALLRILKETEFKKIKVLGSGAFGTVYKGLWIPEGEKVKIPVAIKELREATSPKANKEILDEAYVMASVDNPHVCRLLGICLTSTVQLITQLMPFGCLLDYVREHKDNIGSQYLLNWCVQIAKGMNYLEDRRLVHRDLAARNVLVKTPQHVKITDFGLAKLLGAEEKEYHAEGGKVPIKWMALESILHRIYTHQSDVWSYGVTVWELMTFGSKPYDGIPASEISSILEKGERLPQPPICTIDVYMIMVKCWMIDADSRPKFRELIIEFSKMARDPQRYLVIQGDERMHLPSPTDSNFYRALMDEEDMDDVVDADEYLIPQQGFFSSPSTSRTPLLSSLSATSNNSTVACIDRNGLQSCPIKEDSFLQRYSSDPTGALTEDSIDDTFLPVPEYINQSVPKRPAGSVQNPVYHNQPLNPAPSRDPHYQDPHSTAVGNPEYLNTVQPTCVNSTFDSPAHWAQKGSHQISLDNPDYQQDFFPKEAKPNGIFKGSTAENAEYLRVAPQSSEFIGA

SMILES	pIC50 [1]	Drug metabolism [4]	remaining at 0.5 h, 5 µM [5]	remaining at 0.5 h, 5 µM [6]	pIC50 (HT-29 [2])	pIC50 (HT-29 [3])
COc1cc2ncnc(Nc3ccc(F)c(Cl)c3)c2cc1OCCCCn1ccnc1[N+](=O)[O-]	9.33	metabolite_detected	70%	< 10%	5.66	5.79
COc1cc2ncnc(Nc3ccc(F)c(Cl)c3)c2cc1OCCCCCCn1ccnc1[N+](=O)[O-]	–	–	–	–	4.89	5.01
C#Cc1cccc(Nc2ncnc3cc(OC)c(OCCCn4ccnc4[N+](=O)[O-])cc23)c1	8.97	–	–	–	5.26	5.26
C#Cc1cccc(Nc2ncnc3cc(OC)c(OCCCCCn4ccnc4[N+](=O)[O-])cc23)c1	9.31	–	–	–	5.45	5.52
C#Cc1cccc(Nc2ncnc3cc(OC)c(OCCCCCCn4ccnc4[N+](=O)[O-])cc23)c1	9.30	–	–	–	5.53	5.46
COc1cc2ncnc(Nc3ccc(OCc4cccc(F)c4)c(Cl)c3)c2cc1OCCCCCn1ccnc1[N+](=O)[O-]	7.29	–	–	–	5.51	5.87
COc1cc2ncnc(Nc3ccc(F)c(Cl)c3)c2cc1OCCn1c([N+](=O)[O-])cnc1C	8.31	–	–	–	< 4.30	< 4.30
COc1cc2ncnc(Nc3ccc(F)c(Cl)c3)c2cc1OCCCN1CCOCC1 [GEFITINIB]	–	–	> 90%	> 90%	–	–
Nc1n[n+]([O-])c2ccccc2[n+]1[O-] [TIRAPAZAMINE]	–	–	–	–	< 4.30	5.02

More lines, in order of rising pIC50 [1], values ahead:

pIC50 [1]	Drug metabolism [4]	remaining at 0.5 h, 5 µM [5]	remaining at 0.5 h, 5 µM [6]	SMILES	pIC50 (HT-29 [2])	pIC50 (HT-29 [3])
7.42	–	–	–	COc1cc2ncnc(Nc3ccc(OCc4cccc(F)c4)c(Cl)c3)c2cc1OCCCn1ccnc1[N+](=O)[O-]	4.81	4.70
7.55	–	–	–	COc1cc2ncnc(Nc3ccc(OCc4cccc(F)c4)c(Cl)c3)c2cc1OCCCCn1ccnc1[N+](=O)[O-]	5.73	5.68
7.82	–	–	–	COc1cc2ncnc(Nc3ccc(OCc4cccc(F)c4)c(Cl)c3)c2cc1OCCCCCCn1ccnc1[N+](=O)[O-]	< 4.30	4.61
8.46	–	–	–	COc1cc2ncnc(Nc3ccc(F)c(Cl)c3)c2cc1OCCCn1c([N+](=O)[O-])cnc1C	4.63	4.94
8.52	–	–	–	COc1cc2ncnc(Nc3ccc(F)c(Cl)c3)c2cc1OCCn1ccnc1[N+](=O)[O-]	< 4.30	5.00
8.93	–	–	–	COc1cc2ncnc(Nc3cccc(Br)c3)c2cc1OCCCn1c([N+](=O)[O-])cnc1C	4.80	5.27
9.05	–	–	–	COc1cc2ncnc(Nc3ccc(F)c(Cl)c3)c2cc1OCCCn1ccnc1[N+](=O)[O-]	5.08	5.14
9.18	–	–	–	COc1cc2ncnc(Nc3cccc(Br)c3)c2cc1OCCCn1ccnc1[N+](=O)[O-]	5.35	5.40
9.25	–	–	–	C#Cc1cccc(Nc2ncnc3cc(OC)c(OCCCCn4ccnc4[N+](=O)[O-])cc23)c1	5.00	5.16
9.28	–	–	–	COc1cc2ncnc(Nc3ccc(F)c(Cl)c3)c2cc1OCCCCn1c([N+](=O)[O-])cnc1C	5.09	5.00
9.29	–	–	–	COc1cc2ncnc(Nc3ccc(F)c(Cl)c3)c2cc1OCCCCCn1ccnc1[N+](=O)[O-]	4.75	5.25
